Laboratory results: patent publication US20240101584A1, “TARGETED DELIVERY OF 1,2,4,5 TETRAOXANE COMPOUNDS AND THEIR USES” (Westlake University, priority 2021, published 2024)
Entries after “also recorded” stand apart in the source; their conditions may differ. Read-outs that look alike come from different tables or passages of the source. Values belong to the compound of their own block, whether it stands above or below them.

Columns and labels:
MDA-MB-231 cells [1] = settings: reported data of known compounds; cited from earlier work
HCT116 cells [2] = settings: reported data of known compounds; cited from earlier work
HL-60 cells = settings: cited from earlier work; for IC50: reported data of known compounds
MDA-MB-231 cells [3] = assay: MTT viability assay, MDA-MB-231 cells; assay type: cell-based; settings: MTT, 48 h incubation, mean, n = 3, read-out: IC50 against MDA-MB-231 cells
Description: (§1) The anticancer activities of the exemplary compounds listed in Example 1 were tested against human cervix Hela cells, mammary breast cancer MDA-MB-231 cells, human hepatocellular HepG2 cells, human colorectal HCT116 cells, mammary ductal T47D cells, non-cancerous NIH3T3 cells, dog's kidney MDCK cells, and mouse brain bEnd.3 cells, respectively.

NIH3T3 cells = assay: MTT viability assay, non-cancerous NIH3T3 cells; assay type: cell-based
Description: as §1

HeyA8 cells = assay: CellTiter-Glo viability, adherent HeyA8 ovarian cancer cells; assay type: cell-based
[4] = system: lipid ROS in MDA-MB-231 cells; assay: C11-BODIPY lipid ROS detection in MDA-MB-231 cells; assay type: cell-based; settings: 48 5 μM, 37b 1 μM, RSL3 0.5 μM; 6 h incubation
Description: FIG. 11 is a bar graph showing the detection of lipid ROS with compound 48 (5 μM), compound 37b (1 μM), or RSL3 (0.5 μM) by BODIPY 581/591 C11 after 6 h incubation in MDA-MB-231 cells. **P≤0.01 versus DMSO group. Data are plotted as the mean±SD, n=3 biologically independent samples. All P values were determined using two-tailed Student's t-test.
Since lipid peroxidation is the evidence about ferroptosis, C11-BODIPY probe is used to validate the lipid ROS generated by tetraoxanes. It is a ratiometric membrane-targeted probe which changes the emission from 590 nm to 510 nm upon the detection of lipid ROS. Here, MDA-MB-231 cells were treated with 48, 37b and RSL3, respectively. The lipid ROS levels were quantified by flow cytometry. Untreated group gave weak signal in FL1 channel (FIG. 11).

Hela cells [5] = assay: MTT viability assay, Hela cells; assay type: cell-based, human; settings: 48 h incubation, mean, n = 3, read-out: IC50 against Hela cells
Description: as §1

HEK293 cells [6] = assay: MTT viability assay, HEK293 cells; assay type: cell-based; settings: mean, n = 3, read-out: IC50 against HEK293 cells
HepG2 cells [7] = assay: MTT viability assay, HepG2 cells; assay type: cell-based, human; settings: MTT, 48 h incubation, mean, n = 3, read-out: IC50 against HepG2 cells
Description: as §1

HCT116 cells [8] = assay: MTT viability assay, HCT116 cells; assay type: cell-based, human; settings: MTT, 48 h incubation, mean, n = 3, read-out: IC50 against HCT116 cells
Description: as §1

MDCK cells = assay: MTT viability assay, MDCK cells; assay type: cell-based, dog; settings: 48 h incubation, mean, n = 3, read-out: IC50 against MDCK cells
Description: as §1

HEYA8 CSCs = assay: CellTiter-Glo viability, HeyA8 cancer stem cells (spheres); assay type: cell-based; settings: 5 μM of erastin, 50 μM of artesunate; RSL3 single dose
Hela cells [9] = settings: reported compound in the literature; read-out: overall IC50, Hela cells, reported compound; cited from earlier work
HEK293 cells [10] = settings: reported compound in the literature; read-out: overall IC50, HEK293 cells, reported compound; cited from earlier work
HepG2 cells [11] = settings: reported compound in the literature; read-out: overall IC50, HepG2 cells, reported compound; cited from earlier work
PMBC = settings: reported compound in the literature; cited from earlier work
T47D cells = assay: MTT viability assay, T47D cells; assay type: cell-based; settings: MTT, 48 h incubation, mean, n = 3, read-out: IC50 against T47D cells
Description: as §1

bEnd.3 cells = assay: MTT viability assay, bEnd.3 cells; assay type: cell-based, mouse; settings: mean, n = 3, read-out: IC50 against bEnd.3 cells
Description: as §1

[12] = MTT, 48 h incubation, mean, n = 3, read-out: IC50 against NIH3T3 cells
[13] = Mus musculus, NIH3T3, MTT, 48 h incubation, mean, n = 3, read-out: IC50 against NIH3T3 cells
[14] = Homo sapiens, HEK293, 48 h incubation
[15] = Mus musculus, BEND3, 48 h incubation

SMILES: CC(C)(N)CNC(=O)C[C@H]1CC[C@]2(CC1)OO[C@]1(O2)C2CC3CC(C2)CC1C3 [OZ277]
- IC50 (MDA-MB-231 cells [1]): 35.2 µM
- IC50 (HCT116 cells [2]): 68.3 µM
- IC50 (HL-60 cells): 53.8 µM

SMILES: COC(=O)c1ccc([C@@H]2c3[nH]c4ccccc4c3C[C@@H](C(=O)OC)N2C(=O)CCl)cc1 [RSL3, reference compound]
- IC50 (MDA-MB-231 cells [3]): 0.041 µM
- selectivity between non-cancerous cells and cancer cells (NIH3T3 cells): more cytotoxic to non-cancerous cells than cancer cells
- IC50 (NIH3T3 cells; [12]): 0.028 µM
- IC50 (NIH3T3 cells; text b507, read-out: IC50 on NIH3T3 cells): 0.0283 ± 0.0086 µM
- elimination of adherent HEYA8 cells (HeyA8 cells; 5 μM): eliminate the majority of adherent HEYA8 cells
- lipid ROS (BODIPY 581/591 C11, FL1, flow cytometry) [4]: fluorescence enhancement in FL1 was observed

SMILES: O=C(NCCC[P+](c1ccccc1)(c1ccccc1)c1ccccc1)OC1CCC2(CC1)OOC1(OO2)C2CC3CC(C2)CC1C3 (centres unmarked) [Compound 30b, (3-(((((1r,3r,5r,7r)-dispiro[adamantane-2,3′-[1,2,4,5]tetraoxane-6′,1″-cyclohexan]-4″-yl)oxy)carbonyl)amino)propyl)triphenylphosphonium bromide]
- IC50 (MDA-MB-231 cells [3]): 0.53 µM
- IC50 (Hela cells [5]): 2.4 µM
- IC50 (HEK293 cells [6]; 48 h incubation): 1 µM
- IC50 (HepG2 cells [7]): 1.2 µM
- IC50 (NIH3T3 cells; [12]): 5.8 µM
- IC50 (HCT116 cells [8]): 1.4 µM
- IC50 (MDCK cells): 5.8 µM

- IC50 (MDA-MB-231 cells [3]; Homo sapiens, MDA-MB-231, 48 h): 20.3 µM
SMILES: C[C@H]1[C@H](OC(=O)CCC(=O)O)O[C@@H]2O[C@@]3(C)CC[C@H]4[C@H](C)CC[C@@H]1[C@@]24OO3 [Artesunate, reference compound]
- IC50 (NIH3T3 cells; [13]): 17.4 µM
- cell death of adherent HEYA8 cells (HeyA8 cells; high concentration): ~50%
- cytotoxic effect on HEYA8 CSCs at single dose (HEYA8 CSCs): did not show any cytotoxic effect; also recorded: almost insensitive

SMILES: CN1CCN(C2CCN(C(=O)CC3CCC4(CC3)OOC3(OO4)C4CC5CC(C4)CC3C5)CC2)CC1 (centres unmarked) [RKA182]
- IC50 (Hela cells [9]): > 12 µM
- IC50 (HEK293 cells [10]): > 12 µM
- IC50 (HepG2 cells [11]): > 12 µM
- best selectivity index (PMBC versus HL-60) (HL-60 cells; reported compound in the literature): 4
- IC50 (HL-60 cells): 11.6 ± 0.4 µM
- IC50 (PMBC): 46.6 ± 0.7 µM

- IC50 (MDA-MB-231 cells [3]; Homo sapiens, MDA-MB-231, 48 h): 7.4 µM
- IC50 (Hela cells [5]; Homo sapiens, HeLa): 15.1 µM
- IC50 (T47D cells; Homo sapiens, T47D): 6.1 µM
- IC50 (HepG2 cells [7]; Homo sapiens, HepG2): 4.8 µM
- IC50 (HCT116 cells [8]; Homo sapiens, HCT-116): 14.4 µM
SMILES: CC(C)(C)C1CCC2(CC1)OOC1(CCC(O)CC1)OO2 (centres unmarked) [Compound 37, 12-(tert-butyl)-7,8,15,16-tetraoxadispiro[5.2.59.26]hexadecan-3-ol]
- IC50 (HEK293 cells [6]; [14]): 5.8 µM
- IC50 (NIH3T3 cells; [13]): 7.1 µM
- IC50 (MDCK cells; Canis lupus familiaris, MDCK): > 50 µM
- IC50 (bEnd.3 cells; [15]): > 100 µM

- IC50 (MDA-MB-231 cells [3]; Homo sapiens, MDA-MB-231, 48 h): 2 µM
- IC50 (Hela cells [5]; Homo sapiens, HeLa): 3.9 µM
- IC50 (T47D cells; Homo sapiens, T47D): 2.2 µM
- IC50 (HepG2 cells [7]; Homo sapiens, HepG2): 2 µM
- IC50 (HCT116 cells [8]; Homo sapiens, HCT-116): 4.6 µM
SMILES: CN(C)CCCNC(=O)OC1CCC2(CC1)OOC1(CCC(C(C)(C)C)CC1)OO2 (centres unmarked) [Compound 37a, 12-(tert-butyl)-7,8,15,16-tetraoxadispiro[5.2.59.26]hexadecan-3-yl(3-(dimethylamino)propyl)carbamate]
- IC50 (HEK293 cells [6]; [14]): 0.8 µM
- IC50 (NIH3T3 cells; [13]): 1.7 µM
- IC50 (MDCK cells; Canis lupus familiaris, MDCK): 23.7 µM
- IC50 (bEnd.3 cells; [15]): 10.9 µM

SMILES: O=C(CC1CCC2(CC1)OOC1(OO2)C2CC3CC(C2)CC1C3)NCCC[P+](c1ccccc1)(c1ccccc1)c1ccccc1 (centres unmarked) [Compound 6b, (3-(2-((1r,3r,5r,7r)-dispiro[adamantane-2,3′-[1,2,4,5]tetraoxane-6′,1″-cyclohexan]-4″-yl)acetamido)propyl)triphenylphosphonium bromide]
- IC50 (MDA-MB-231 cells [3]): 2.6 µM
- IC50 (Hela cells [5]): 2.2 µM
- IC50 (T47D cells): 4.4 µM
- IC50 (HEK293 cells [6]; 48 h incubation): 1.6 µM
- IC50 (MDCK cells): 18.1 µM
- IC50 (bEnd.3 cells; 48 h incubation): 12.3 µM
